Laboratory results: article PMC9861386, “N-Heterocyclic Carbene-Iridium Complexes as Photosensitizers for In Vitro Photodynamic Therapy to Trigger Non-Apoptotic Cell Death in Cancer Cells” (Molecules, 2023)
Read-outs that look alike come from different tables or passages of the source.

How the values were obtained:
[1] = Octanol–water partition coefficient, shake-flask method; format: physicochemical; conditions: n-octanol/water, UV absorbance 260 nm
Procedure: Lipophilicities of all complexes have been measured by the classical shake-flask method, using UV absorption. The Log p values range from -0.063 to 0.861 in increasing order –0.063 (4a), 0.035 (4d), 0.519 (4f), 0.581 (4c), 0.842 (4b), 0.847 (4e) and 0.861 (4g).
The octanol–water partition coefficients (P) of 4a to 4g were determined using a shake-flask method. Water (100 mL, distilled after milli-Q purification) and n-octanol (100 mL, Sigma-Aldrich, St. Louis, MO, USA, ACS spectrophotometric grade, ≥99%) were shaken together for 24 h to allow saturation of both phases. Stock solutions of the […] compounds (50 μM) were prepared in the aqueous phase and aliquots (1 mL) of each of these stock solutions were then added to an equal volume of the n-octanol phase. The resultant biphasic solutions were mixed for 1 h and then centrifuged (3000× g, 5 min) (Eppendorf Centrifuges 5415R and 5804R) to separate the phases. The concentrations of the complexes in the organic and aqueous phases were then determined using UV absorbance spectroscopy (260 nm). Log P was defined as the logarithm of the ratio of the concentrations of the studied complex in the organic and aqueous phases (Log P = Log {[Ir(org)]/[Ir(aq)]}; values reported are the means of at least two separate determinations).

MC3T3 osteoblasts = experiment: MTT cell viability, 72 h, dark or 458 nm irradiation; format: cell-based, murine
Procedure: (§1) For all biology experiments, the compounds were solubilized in DMSO to reach a final fixed concentration equal to 0.1% v/v to avoid cytotoxicity caused by DMSO [89]. The results are normalized to controls (0.1% v/v DMSO). Depending on the cell type, approximatively 1000 to 10,000 cells/cm^2 were seeded in 48-well plates for MTT, ATP and GSH assays and 60 mm Petri dishes for Western blots. Cells were allowed to attach overnight and then incubated for 4 h with the different complexes (in the dark), then irradiated for 10 min, followed by an incubation in the dark up to 72 h.
(§2) Irradiation was conducted using an in-house device: a series of blue light LEDs selected according to the absorption spectra of the compounds at a 458 nm wavelength with an emitted power of 9.6 watts. The absorbed energy, or irradiance, was measured at 458 nm with a Thorlabs Optical Power Meter PM100A at 5 and 10 cm distance between the cell layer and the light source and expressed as mW/cm^2.
(§3) A tetrazolium-based MTT reagent (3-(4,5-dimethylthiazol-2-yl)-2,5-diphenyltetrazolium bromide) was used to determine cell viability, as previously described. After 72 h of treatment at 37 °C and 5% CO2, cells were incubated with 25 μL MTT solution (5 mg/mL; Sigma-Aldrich) for 4 h. After solubilization with 500 μL of lysis buffer (DMSO), formazan was quantified by spectrophotometry with a microplate reader at 570 nm absorbance (ClarioSTAR, BMG LabTech, Champigny-sur-Marne, France). GI50 values corresponding to the concentration that caused 50% inhibition of cell proliferation were calculated from dose–response curves obtained by nonlinear regression analysis. All results were calculated from data obtained in at least three independent experiments.

NIH-3T3 fibroblasts = experiment: as above; format: cell-based, murine; conditions: for GI50: 72 h, MTT; for PI NIH-3T3: GI50 non-irradiated / GI50 irradiated
Procedure: as §1, §2, §3

PC-3 = experiment: MTT cytotoxicity, 48 h; format: cell-based, human; conditions: for GI50: MTT; for SI (PC-3): NIH3T3 vs PC-3
Procedure: (§4) The in vitro cytotoxicity of iridium(III) complexes 4a–4g was first evaluated against cancer cell lines PC-3 (human prostate) and T24 (human bladder) and the non-cancerous NIH-3T3 cell line (murine fibroblasts) using colorimetric MTT tests after 48 h of treatment. The dimeric iridium precursor [IrCl(ppy)2]2 was used as reference and the results are summarized in Table S1 (Supplementary Materials) in the supporting information file. […] The complexes were also evaluated for their cytotoxicity towards healthy NIH-3T3 cells, giving access to the selectivity index (SI). […] No linear correlation between lipophilicity and anti-cancer activity was found for the iridium(III) complexes 4a–4g. For the following biological studies, we focused on the C1 series.
(§5) Table S1. Cytotoxic activity of iridium(III) NHC complexes 4a−4g expressed as GI50 (μM) values towards selected cancer and normal cell lines as determined by MTT assay (48 h).a Complex PC-3 T24 NIH3T3 SI (PC-3) SI (T24) […]
(§6) a GI50 values correspond to the concentration of complexes causing 50 % inhibition of cell growth.
(§7) Data were obtained from three independent experiments.
(§8) The cytotoxic effects of the NHC precursors, the imidazolium salts, which represents the potential hydrolysis and/or degradation products of the complexes, have been published before [SI-1, SI-2]. […]

T24 = experiment: MTT cytotoxicity, 48 h; format: cell-based, human; conditions: for GI50: MTT; for SI (T24): NIH3T3 vs T24
Procedure: as §4, §5, §6, §7, §8

NIH3T3 = experiment: MTT cytotoxicity, 48 h; format: cell-based, murine
Procedure: as §4, §5, §6, §7, §8

[2] = 458 nm irradiation 10 min, read-out: GI50 MC3T3 Blue
[3] = dark, read-out: GI50 MC3T3 Dark
[4] = 458 nm irradiation 10 min, read-out: GI50 NIH-3T3 Blue
[5] = dark, read-out: GI50 NIH-3T3 Dark

CC(C)C[n+]1ccn2[c]1[Ir-3]13([c]4ccccc4-c4cccc[n+]41)([c]1ccccc1-c1cccc[n+]13)[c]1n(cc[n+]1CC(C)C)C2.F[P-](F)(F)(F)(F)F [Complex 4b]
Log P [1]: 0.842
GI50 (MC3T3 osteoblasts; [2]): 0.704 µM
GI50 (MC3T3 osteoblasts; [3]): 0.979 µM
GI50 (NIH-3T3 fibroblasts; [4]): 1.52 µM
PI NIH-3T3 (NIH-3T3 fibroblasts): 1.3
GI50 (NIH-3T3 fibroblasts; [5]): 1.95 µM
GI50 (PC-3): 0.51 µM
SI (PC-3) (PC-3): 6.9
GI50 (T24): 0.38 µM
SI (T24) (T24): 9.2
GI50 (NIH3T3): 3.5 µM

CSc1ccc(-[n+]2ccn3[c]2[Ir-3]24([c]5ccccc5-c5cccc[n+]52)([c]2ccccc2-c2cccc[n+]24)[c]2n(cc[n+]2-c2ccc(SC)cc2)C3)cc1.F[P-](F)(F)(F)(F)F [Complex 4d]
Log P [1]: 0.035
GI50 (MC3T3 osteoblasts; [2]): 1.8 µM
GI50 (MC3T3 osteoblasts; [3]): 2.08 µM
GI50 (NIH-3T3 fibroblasts; [4]): 2.78 µM
PI NIH-3T3 (NIH-3T3 fibroblasts): 0.8
GI50 (NIH-3T3 fibroblasts; [5]): 2.33 µM
GI50 (PC-3): 0.71 µM
SI (PC-3) (PC-3): 12.0
GI50 (T24): 0.95 µM
SI (T24) (T24): 8.9
GI50 (NIH3T3): 8.5 µM

F[P-](F)(F)(F)(F)F.c1ccc(C[n+]2ccn3[c]2[Ir-3]24([c]5ccccc5-c5cccc[n+]52)([c]2ccccc2-c2cccc[n+]24)[c]2n(cc[n+]2Cc2ccccc2)C3)cc1 [Complex 4c]
Log P [1]: 0.581
GI50 (MC3T3 osteoblasts; [2]): 1.33 µM
GI50 (MC3T3 osteoblasts; [3]): 1.16 µM
GI50 (NIH-3T3 fibroblasts; [4]): 2.67 µM
PI NIH-3T3 (NIH-3T3 fibroblasts): 1.0
GI50 (NIH-3T3 fibroblasts; [5]): 2.73 µM
GI50 (PC-3): 0.41 µM
SI (PC-3) (PC-3): 17.3
GI50 (T24): 0.43 µM
SI (T24) (T24): 16.5
GI50 (NIH3T3): 7.1 µM

CC(C)[n+]1ccn2[c]1[Ir-3]13([c]4ccccc4-c4cccc[n+]41)([c]1ccccc1-c1cccc[n+]13)[c]1n(cc[n+]1C(C)C)C2.F[P-](F)(F)(F)(F)F [Complex 4a]
Log P [1]: –0.063
GI50 (MC3T3 osteoblasts; [2]): 1.74 µM
GI50 (MC3T3 osteoblasts; [3]): 2.46 µM
GI50 (NIH-3T3 fibroblasts; [4]): 2.79 µM
PI NIH-3T3 (NIH-3T3 fibroblasts): 1.3
GI50 (NIH-3T3 fibroblasts; [5]): 3.67 µM
GI50 (PC-3): 0.48 µM
SI (PC-3) (PC-3): 6.9
GI50 (T24): 0.31 µM
SI (T24) (T24): 10.6
GI50 (NIH3T3): 3.3 µM
